From paper PMC2747507 (The Pediatric infectious disease journal, 2009)
Like-named read-outs stand apart in the source and are kept apart here. Numbered stars: 1 amine (or outer) side, 2 acyl side, 3 side chain; on linkers, the order of the positions; unused ones are H or OH. Bridge positions count the residues as written; N and C are the ends. Square brackets hold non-standard residues; d marks the D form. Peptide text beside a SMILES is read from it. * marks the point of attachment. hTyr(3S-OH,4S-OH,3'-OSO3H) = N[C@H](C(=O)O)[C@H](O)[C@@H](O)c1ccc(O)c(OS(=O)(=O)O)c1; Orn(4R-OH,5R-OH) = O=C([C@H](C[C@@H](O)[C@@H](O)N[*:3])N[*:1])[*:2]; Pro(3S-OH,4S-Me) = C[C@H]1CN[C@H](C(=O)O)[C@H]1O; X1 = CCCCCOc1ccc(-c2cc(-c3ccc(C(=O)*)cc3)no2)cc1; Gln(3R-OH) = NC(=O)C[C@@H](O)[C@H](N)C(=O)O; Hyp = O=C(O)[C@@H]1C[C@@H](O)CN1

Legend:
[1] = cited from earlier work
[2] = type: in vivo, human (preterm neonates); conditions: 15 mg/kg/day IV
[3] = cited from earlier work; remark: listed apart in the source
[4] = system: central nervous system infections; conditions: neutropenic rabbits; cited from earlier work
[5] = type: in vivo, human (preterm neonates)
[6] = neonates <1000 grams (n=7), mean (SD), SD
[7] = neonates ≥1000 grams (n=5), mean (SD), SD
[8] = 12 neonates, 15 mg/kg/day IV for 5 days, not felt related to micafungin

CCCCCOc1ccc(-c2cc(-c3ccc(C(=O)N[C@H]4C[C@@H](O)[C@@H](O)NC(=O)[C@@H]5[C@@H](O)[C@@H](C)CN5C(=O)[C@H]([C@H](O)CC(N)=O)NC(=O)[C@H]([C@H](O)[C@@H](O)c5ccc(O)c(OS(=O)(=O)O)c5)NC(=O)[C@@H]5C[C@@H](O)CN5C(=O)[C@H]([C@@H](C)O)NC4=O)cc3)no2)cc1 [micafungin] (X1-[Orn(4R-OH,5R-OH)]T[Hyp][hTyr(3S-OH,4S-OH,3'-OSO3H)][Gln(3R-OH)][Pro(3S-OH,4S-Me)]; lactam 1-C)
Vdss ([1]; adult studies): 0.26 L/kg
average AUC ([1]; adults, 150 mg dose): 166.7 µg·h/mL
CL ([1]; adults): 0.16 mL/min/kg
CL ([1]; children ages 2–8 years): 0.38 mL/min/kg
CL ([1]; children ages 9–17 years): 0.28 mL/min/kg
highest observed AUC0–24 ([2]; preterm neonates, maximum of n=12): 555.6 µg·h/mL
Vdss [2, 6]: 1.637(0.657) L/kg
Vdβ [2, 6]: 0.636(0.370) L/kg
Vdss [2, 7]: 1.344(0.141) L/kg
Vdβ [2, 7]: 0.581(0.106) L/kg
Vdβ, volume of distribution in the elimination phase ([2]; whole cohort n=12, mean (SD), SD): 0.613(0.282) L/kg
Cmax ([2]; whole cohort n=12, obtained directly from the data, mean (SD), SD): 38.4(8.8) ug/mL
Vdss ([2]; whole cohort n=12, weight-normalized, mean (SD), SD): 1.515(0.516) L/kg
mean CL ([3]; 18 neonates > 1000 g, single IV dose 0.75, 1.5 or 3.0 mg/kg): 0.65 mL/min/kg
CL ([3]; neonates < 1000g, single dose 0.75 mg/kg, data from 4 patients): 1.32 mL/min/kg
Vdss in neonates from the previous study ([3]; single-dose study in neonates): 0.44 L/kg
treatment of central nervous system infections [4]: Successful treatment
reported AE: hypochloremia [5, 8]: 33%
reported AE: hypokalemia [5, 8]: 25%
reported AE: hyponatremia [5, 8]: 42%
reported AE: monocytosis [5, 8]: 25%
renal toxicity and changes in hematology parameters ([5]; 12 neonates, baseline vs end of therapy): No evidence of renal toxicity or significant changes in hematology parameters
deaths ([5]; 12 neonates, 3 days after completing the course of micafungin): One 540 g neonate died on day of life 11 from necrotizing enterocolitis
Potassium, after 5th dose ([5]; median (IQR), prior to 1st dose 4.0 (3.4, 4.4), P 0.03): 4.6 mmol/L
